Results reported in patent publication US6906098B2, “Mixed steroidal 1,2,4,5-tetraoxane compounds and methods of making and using thereof” (priority 2002, dated 2005).
Converted amounts (≈) assume the structure as drawn.

Assays:
[1] = test system: D6 and W2 P. falciparum clones; assay type: cell-based, Plasmodium falciparum; conditions: IC50 (W2)/IC50 (D6) ratio
[2] = test system: M. tuberculosis H37Rv; test: Minimum inhibitory concentration (MIC) in the MABA; assay type: cell-based, Mycobacterium tuberculosis; conditions: Mycobacterium tuberculosis, H37RV, Table 5; Alamar assay, M. tuberculosis H37Rv; read-out: MIC
Method in brief: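 Run under the NIAID TAACF screening program against M. tuberculosis by fluorescence read-out. MIC taken as the lowest concentration giving 90% reduction in fluorescence relative to controls.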

[3] = test system: 60 human tumor cell lines; test: DTP Human Tumor Cell Line Screen, full panel; assay type: cell-based; conditions: range over 60 cell lines, after 48 h, read-out: LC50 (the source's name)
Procedure: In preliminary tests, four compounds (1B14a, 1C44, 1C45, and 1C46) were chosen by NIH-NCI for in vitro screening. See Drug discovery and development program, National Cancer Institute, Bethesda, (NCI), http://dtp.nci.nih.gov. All tetraoxanes were evaluated in the 3-cell line (lung—NCI-H460, breast—MCF7, CNS-SF-268) one dose primary anticancer assay: growth percentage after 48 hours, at 100 μM concentration of tested compound. Two compounds were eliminated at this step (1B14a and 1C46), while the acid 1C44 and primary amide 1C45 were evaluated against the full panel of 60 human tumor cell lines starting with 10^−4 M concentration of investigated compounds.
The activity of numerous compounds of the present invention against various cancer cell lines was submitted to the Developmental Therapeutics Program (DTP) at the National Cancer Institute (NCI) of the National Institutes of Health (NIH) for screening.
The DTP Human Tumor Cell Line Screen utilizes 60 different human tumor cell lines, representing leukemia, melanoma and cancers of the lung, colon, brain, ovary, breast, prostate, and kidney according to conventional methods known in the art. […]

[4] = test system: Plasmodium falciparum chloroquine-resistant strain W2; test: microbe, parasite or virus in culture; assay type: cell-based; conditions: Plasmodium falciparum, W2, 66 h, read-out: Strain W2 IC50, growth inhibition, chloroquine-resistant strain W2, 66 h incubation
[5] = test system: Plasmodium falciparum chloroquine-susceptible strain D6; test: In vitro antimalarial drug susceptibility assay (radiolabeled hypoxanthine incorporation), strain D6; assay type: cell-based; conditions: Plasmodium falciparum, D6, 66 h, read-out: Strain D6 IC50, growth inhibition, chloroquine-susceptible strain D6, 66 h incubation
[6] = test system: Mycobacterium tuberculosis H37Rv (ATCC 27294); test: Primary screen, Microplate Alamar Blue Assay (MABA), percent inhibition; assay type: cell-based; conditions: Mycobacterium tuberculosis, Table 5; Alamar assay, primary screening at 6.25 μg/ml; read-out: % Inhib
Method in brief: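 Single-concentration screen at 6.25 μg/ml (or molar equivalent of the heaviest congener in a series) against H37Rv grown in BACTEC 12B medium. Growth read by Microplate Alamar Blue Assay, reported as percent inhibition.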

COC(=O)CCC(C)[C@H]1CCC2C3C(C[C@H](OC(C)=O)[C@@]21C)[C@@]1(C)CCC2(C[C@H]1C[C@H]3OC(C)=O)OOC1(CCCCCCC1)OO2 (stereo partly drawn) [8c/1B11, Methyl 7α,12α-diacetoxy-5β-cholan-24-oate-3-spiro-6′-(1′,2′,4′,5′-tetraoxacyclohexane)-3′-spirocyclooctane]
Resistance Index [1]: 0.41
MIC [2]: > 6.25 µg/mL
CC50 [3]: > 100 µM
IC50 [4]: 0.0133 µg/mL (≈ 0.02 µM)
IC50 [5]: 0.0321 µg/mL (≈ 0.0484 µM)
inhibition at 6.25 µg/mL [6]: 0%
